The record followed here is ChEMBL document CHEMBL3991601, “The target landscape of clinical kinase drugs” (Science, 2017).

Structures are written as SMILES. The source made the active and inactive calls. For most assays here, no stated cut-off is given here; in the data, actives have a measured Kd and inactives only a lower limit. Some results are limits rather than exact numbers.

One experiment addresses T1, Rab-like protein 3 (Homo sapiens, UniProt Q5HYI8).
T1 sequence (Q5HYI8 whole entry): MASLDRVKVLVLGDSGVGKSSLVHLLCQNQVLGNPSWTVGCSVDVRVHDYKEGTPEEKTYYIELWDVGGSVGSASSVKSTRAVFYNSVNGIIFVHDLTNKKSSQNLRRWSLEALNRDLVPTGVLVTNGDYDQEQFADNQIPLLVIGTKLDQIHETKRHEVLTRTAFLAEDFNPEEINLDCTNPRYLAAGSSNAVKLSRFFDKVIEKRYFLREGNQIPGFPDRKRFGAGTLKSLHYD

In experiment [1] the target is 26S proteasome regulatory subunit 6B (Homo sapiens, UniProt P43686).
The target of experiment [2] is T2, Serine/threonine-protein kinase ULK1 (Homo sapiens, UniProt O75385).
T2 sequence (O75385 whole entry): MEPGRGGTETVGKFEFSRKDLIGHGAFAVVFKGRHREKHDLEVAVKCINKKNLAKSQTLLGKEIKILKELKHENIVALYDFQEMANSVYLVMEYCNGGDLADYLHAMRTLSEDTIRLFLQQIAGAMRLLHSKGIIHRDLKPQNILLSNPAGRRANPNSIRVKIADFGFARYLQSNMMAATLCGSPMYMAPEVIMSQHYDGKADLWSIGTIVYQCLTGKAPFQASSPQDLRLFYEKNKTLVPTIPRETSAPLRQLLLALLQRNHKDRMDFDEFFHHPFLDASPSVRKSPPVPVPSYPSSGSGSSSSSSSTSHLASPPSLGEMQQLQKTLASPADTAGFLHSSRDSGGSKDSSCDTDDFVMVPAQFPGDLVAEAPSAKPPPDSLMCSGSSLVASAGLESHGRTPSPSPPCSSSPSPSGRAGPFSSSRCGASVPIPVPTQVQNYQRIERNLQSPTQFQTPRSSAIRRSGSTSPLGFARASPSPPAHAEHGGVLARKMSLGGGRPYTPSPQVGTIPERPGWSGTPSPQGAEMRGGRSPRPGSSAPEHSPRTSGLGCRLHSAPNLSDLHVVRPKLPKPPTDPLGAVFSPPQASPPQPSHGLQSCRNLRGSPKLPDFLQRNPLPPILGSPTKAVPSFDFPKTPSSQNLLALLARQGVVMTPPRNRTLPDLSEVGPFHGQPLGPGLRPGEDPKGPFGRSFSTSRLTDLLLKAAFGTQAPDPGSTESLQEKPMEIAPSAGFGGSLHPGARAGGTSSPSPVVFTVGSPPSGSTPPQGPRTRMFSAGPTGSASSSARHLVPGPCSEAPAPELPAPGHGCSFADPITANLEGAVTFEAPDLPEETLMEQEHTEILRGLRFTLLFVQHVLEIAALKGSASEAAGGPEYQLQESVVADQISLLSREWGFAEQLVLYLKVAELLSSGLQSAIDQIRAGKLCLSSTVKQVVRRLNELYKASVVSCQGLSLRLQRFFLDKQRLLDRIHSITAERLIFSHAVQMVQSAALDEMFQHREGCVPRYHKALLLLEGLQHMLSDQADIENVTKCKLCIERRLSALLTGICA

Experiment [3] deals with Rho-associated protein kinase 2 (Homo sapiens, UniProt O75116).
Experiment [4] has as its target T3, Mitogen-activated protein kinase kinase kinase 6 (Homo sapiens, UniProt O95382).
T3 sequence (O95382 whole entry): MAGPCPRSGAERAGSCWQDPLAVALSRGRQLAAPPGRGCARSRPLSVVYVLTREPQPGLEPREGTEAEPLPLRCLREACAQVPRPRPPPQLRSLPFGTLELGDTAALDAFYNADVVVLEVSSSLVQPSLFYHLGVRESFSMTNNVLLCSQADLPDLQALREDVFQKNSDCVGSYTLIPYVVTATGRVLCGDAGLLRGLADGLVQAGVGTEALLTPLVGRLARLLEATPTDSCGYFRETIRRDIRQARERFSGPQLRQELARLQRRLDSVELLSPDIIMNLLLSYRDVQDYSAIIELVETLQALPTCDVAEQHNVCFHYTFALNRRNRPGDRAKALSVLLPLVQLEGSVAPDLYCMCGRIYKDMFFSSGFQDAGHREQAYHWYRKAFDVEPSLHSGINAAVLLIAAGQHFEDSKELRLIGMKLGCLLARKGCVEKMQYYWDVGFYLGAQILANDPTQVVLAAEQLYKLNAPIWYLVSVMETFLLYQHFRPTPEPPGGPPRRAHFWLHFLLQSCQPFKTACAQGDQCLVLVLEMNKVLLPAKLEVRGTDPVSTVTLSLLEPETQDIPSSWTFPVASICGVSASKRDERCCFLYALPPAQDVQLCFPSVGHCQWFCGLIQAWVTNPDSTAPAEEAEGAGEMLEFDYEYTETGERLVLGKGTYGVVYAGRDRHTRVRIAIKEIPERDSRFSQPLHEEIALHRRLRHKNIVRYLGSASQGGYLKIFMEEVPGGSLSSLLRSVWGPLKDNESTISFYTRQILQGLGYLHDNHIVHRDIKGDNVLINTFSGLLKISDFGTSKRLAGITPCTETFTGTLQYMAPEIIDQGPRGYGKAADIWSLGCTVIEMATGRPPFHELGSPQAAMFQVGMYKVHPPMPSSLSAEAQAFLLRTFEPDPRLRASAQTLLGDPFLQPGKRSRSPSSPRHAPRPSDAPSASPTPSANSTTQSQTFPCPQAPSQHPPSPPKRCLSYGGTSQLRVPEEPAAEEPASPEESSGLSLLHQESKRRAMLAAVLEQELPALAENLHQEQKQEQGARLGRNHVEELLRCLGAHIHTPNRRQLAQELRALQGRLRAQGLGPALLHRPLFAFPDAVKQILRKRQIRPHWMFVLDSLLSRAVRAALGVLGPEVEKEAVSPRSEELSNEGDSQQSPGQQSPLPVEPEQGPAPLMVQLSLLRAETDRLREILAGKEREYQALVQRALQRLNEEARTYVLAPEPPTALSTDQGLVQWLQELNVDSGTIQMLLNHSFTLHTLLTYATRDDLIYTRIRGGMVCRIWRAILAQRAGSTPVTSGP

Experiment [5] deals with Mitogen-activated protein kinase 10 (Homo sapiens, UniProt P53779).
For experiment [6], the target named is Citron Rho-interacting kinase (Homo sapiens, UniProt O14578).
Sequence of Citron Rho-interacting kinase (O14578 whole entry): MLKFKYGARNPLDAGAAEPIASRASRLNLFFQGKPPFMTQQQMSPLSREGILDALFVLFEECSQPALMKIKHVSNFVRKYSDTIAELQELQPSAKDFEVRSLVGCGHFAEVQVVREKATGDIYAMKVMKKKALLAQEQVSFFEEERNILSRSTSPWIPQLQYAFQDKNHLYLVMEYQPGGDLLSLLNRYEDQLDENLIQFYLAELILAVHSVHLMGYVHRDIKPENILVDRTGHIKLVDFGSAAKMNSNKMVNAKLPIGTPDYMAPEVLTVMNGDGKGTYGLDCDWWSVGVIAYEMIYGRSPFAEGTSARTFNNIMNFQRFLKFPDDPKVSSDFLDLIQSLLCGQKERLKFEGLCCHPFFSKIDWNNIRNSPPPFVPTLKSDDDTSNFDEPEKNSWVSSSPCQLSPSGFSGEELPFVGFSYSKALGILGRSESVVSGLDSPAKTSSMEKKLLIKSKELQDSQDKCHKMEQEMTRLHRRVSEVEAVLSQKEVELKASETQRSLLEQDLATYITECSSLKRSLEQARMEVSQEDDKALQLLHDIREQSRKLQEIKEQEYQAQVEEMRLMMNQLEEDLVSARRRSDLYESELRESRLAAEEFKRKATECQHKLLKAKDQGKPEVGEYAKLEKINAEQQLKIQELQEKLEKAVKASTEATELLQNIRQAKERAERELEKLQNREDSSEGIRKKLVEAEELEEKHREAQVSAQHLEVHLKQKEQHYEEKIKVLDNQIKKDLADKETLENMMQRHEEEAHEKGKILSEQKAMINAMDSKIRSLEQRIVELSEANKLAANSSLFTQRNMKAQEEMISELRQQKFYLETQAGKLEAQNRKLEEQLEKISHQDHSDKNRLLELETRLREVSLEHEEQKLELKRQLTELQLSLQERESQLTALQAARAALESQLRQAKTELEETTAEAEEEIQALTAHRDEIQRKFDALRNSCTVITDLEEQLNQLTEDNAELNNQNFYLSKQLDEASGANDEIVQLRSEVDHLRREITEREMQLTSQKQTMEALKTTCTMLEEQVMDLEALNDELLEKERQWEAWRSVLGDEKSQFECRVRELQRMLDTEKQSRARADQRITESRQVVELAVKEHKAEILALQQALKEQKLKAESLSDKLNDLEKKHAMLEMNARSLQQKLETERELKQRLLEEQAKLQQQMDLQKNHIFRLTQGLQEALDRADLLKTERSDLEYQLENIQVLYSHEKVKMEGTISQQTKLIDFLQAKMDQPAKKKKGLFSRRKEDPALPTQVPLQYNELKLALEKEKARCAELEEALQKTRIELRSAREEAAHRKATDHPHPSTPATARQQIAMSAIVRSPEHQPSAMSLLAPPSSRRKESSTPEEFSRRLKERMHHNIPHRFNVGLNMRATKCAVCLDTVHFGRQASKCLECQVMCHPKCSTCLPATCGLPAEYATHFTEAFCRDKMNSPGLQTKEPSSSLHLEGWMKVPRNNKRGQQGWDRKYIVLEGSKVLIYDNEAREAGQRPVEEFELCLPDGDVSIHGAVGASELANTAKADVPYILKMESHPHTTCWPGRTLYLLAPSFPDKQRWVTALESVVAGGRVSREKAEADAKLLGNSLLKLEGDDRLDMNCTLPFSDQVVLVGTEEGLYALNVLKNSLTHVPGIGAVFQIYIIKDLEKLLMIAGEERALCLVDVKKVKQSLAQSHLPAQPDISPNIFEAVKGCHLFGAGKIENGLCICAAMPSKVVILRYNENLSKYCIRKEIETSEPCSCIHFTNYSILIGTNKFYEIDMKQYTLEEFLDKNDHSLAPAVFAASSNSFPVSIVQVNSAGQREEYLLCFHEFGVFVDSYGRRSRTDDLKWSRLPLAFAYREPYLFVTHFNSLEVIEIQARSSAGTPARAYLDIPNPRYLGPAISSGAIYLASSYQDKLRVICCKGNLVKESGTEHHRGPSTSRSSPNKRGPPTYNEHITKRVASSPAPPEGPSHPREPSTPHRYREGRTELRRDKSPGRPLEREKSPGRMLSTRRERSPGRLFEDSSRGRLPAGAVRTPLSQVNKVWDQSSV

Sequence of Rho-associated protein kinase 2 (O75116 whole entry): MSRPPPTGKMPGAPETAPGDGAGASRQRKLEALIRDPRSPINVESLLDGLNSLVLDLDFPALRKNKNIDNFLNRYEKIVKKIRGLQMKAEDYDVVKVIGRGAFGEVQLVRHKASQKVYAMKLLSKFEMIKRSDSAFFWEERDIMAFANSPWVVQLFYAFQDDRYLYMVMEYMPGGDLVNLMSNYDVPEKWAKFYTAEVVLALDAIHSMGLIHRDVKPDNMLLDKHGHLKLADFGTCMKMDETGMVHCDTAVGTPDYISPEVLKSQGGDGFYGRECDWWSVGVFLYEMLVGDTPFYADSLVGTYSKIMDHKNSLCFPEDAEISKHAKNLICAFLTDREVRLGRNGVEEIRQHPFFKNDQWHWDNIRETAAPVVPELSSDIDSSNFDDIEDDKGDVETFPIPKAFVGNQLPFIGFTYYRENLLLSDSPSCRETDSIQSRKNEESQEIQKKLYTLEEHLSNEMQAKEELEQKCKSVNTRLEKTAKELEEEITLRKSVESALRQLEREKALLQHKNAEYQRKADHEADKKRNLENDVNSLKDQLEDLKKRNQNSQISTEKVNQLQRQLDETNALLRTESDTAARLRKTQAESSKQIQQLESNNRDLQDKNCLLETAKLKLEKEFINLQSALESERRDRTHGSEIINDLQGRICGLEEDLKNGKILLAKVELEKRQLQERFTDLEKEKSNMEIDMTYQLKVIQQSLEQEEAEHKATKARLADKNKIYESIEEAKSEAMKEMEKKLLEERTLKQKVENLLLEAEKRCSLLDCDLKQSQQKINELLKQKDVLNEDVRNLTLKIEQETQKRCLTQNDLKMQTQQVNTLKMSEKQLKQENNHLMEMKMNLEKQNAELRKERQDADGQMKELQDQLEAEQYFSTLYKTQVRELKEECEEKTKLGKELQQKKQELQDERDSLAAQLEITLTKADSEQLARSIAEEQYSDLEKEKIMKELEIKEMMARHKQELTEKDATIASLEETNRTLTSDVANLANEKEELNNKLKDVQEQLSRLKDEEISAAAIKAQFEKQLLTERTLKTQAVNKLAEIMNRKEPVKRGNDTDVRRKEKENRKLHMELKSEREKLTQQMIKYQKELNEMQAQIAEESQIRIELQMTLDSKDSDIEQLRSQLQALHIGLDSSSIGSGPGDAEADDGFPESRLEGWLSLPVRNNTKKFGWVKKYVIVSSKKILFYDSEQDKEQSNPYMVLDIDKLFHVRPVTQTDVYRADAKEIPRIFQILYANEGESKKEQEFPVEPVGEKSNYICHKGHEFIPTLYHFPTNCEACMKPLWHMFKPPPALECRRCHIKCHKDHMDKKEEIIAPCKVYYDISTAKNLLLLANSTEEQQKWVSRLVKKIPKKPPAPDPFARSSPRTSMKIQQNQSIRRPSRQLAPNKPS
Sequence of 26S proteasome regulatory subunit 6B (P43686 whole entry): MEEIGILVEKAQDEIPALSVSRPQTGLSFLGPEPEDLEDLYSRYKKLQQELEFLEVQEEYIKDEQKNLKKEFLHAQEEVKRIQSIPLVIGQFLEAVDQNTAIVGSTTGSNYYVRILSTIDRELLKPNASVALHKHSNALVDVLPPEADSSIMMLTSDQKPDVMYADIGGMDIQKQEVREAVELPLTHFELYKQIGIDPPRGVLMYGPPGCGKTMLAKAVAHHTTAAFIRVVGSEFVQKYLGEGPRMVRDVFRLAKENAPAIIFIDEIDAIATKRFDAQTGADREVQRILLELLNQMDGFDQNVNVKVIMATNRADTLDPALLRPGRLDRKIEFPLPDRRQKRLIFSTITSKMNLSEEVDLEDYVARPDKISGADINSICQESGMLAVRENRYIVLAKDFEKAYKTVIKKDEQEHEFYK
Sequence of Mitogen-activated protein kinase 10 (P53779 whole entry): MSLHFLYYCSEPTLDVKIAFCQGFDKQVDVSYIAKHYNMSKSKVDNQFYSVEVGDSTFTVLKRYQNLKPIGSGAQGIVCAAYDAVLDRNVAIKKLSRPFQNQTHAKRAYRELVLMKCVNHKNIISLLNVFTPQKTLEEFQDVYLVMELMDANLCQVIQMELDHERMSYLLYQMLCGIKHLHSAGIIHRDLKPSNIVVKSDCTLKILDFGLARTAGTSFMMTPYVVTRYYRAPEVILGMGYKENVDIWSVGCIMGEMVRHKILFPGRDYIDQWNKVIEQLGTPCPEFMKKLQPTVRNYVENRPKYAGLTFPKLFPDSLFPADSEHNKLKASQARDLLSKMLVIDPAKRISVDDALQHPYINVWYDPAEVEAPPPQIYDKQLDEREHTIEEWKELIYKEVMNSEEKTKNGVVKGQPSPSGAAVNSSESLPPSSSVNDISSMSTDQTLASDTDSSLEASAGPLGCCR

For orientation: Kd means the concentration at which binding is half-saturated. On to `O=C(c1ccc(F)c(F)c1Nc1ccc(I)cc1F)N1CC(O)([C@@H]2CCCCN2)C1` [COBIMETINIB], for which the Kd (at Rab-like protein 3; in experiment [1]; in experiment [2]; in experiment [3]; in experiment [4]; in experiment [5]) was > 30 µM (inactive) throughout. Also, in experiment [6], the Kd was > 30 µM (inactive).

For the molecule `C1=C/COCc2cc(ccc2OCCN2CCCC2)Nc2nccc(n2)-c2cccc(c2)COC/1` [PACRITINIB], the Kd (on Rab-like protein 3; in experiment [1]; in experiment [2]; in experiment [3]; in experiment [4]; in experiment [5]) was > 30 µM (inactive) throughout. Moreover, the Kd in experiment [6] is > 30 µM (inactive).

In the case of `Cc1ccc(S(=O)(=O)Nc2nc3ccccc3nc2Nc2ccc3nsnc3c2)cc1`, the Kd (at Rab-like protein 3; in experiment [1]; in experiment [2]; in experiment [3]; in experiment [4]; in experiment [5]) was > 30 µM (inactive) throughout. In addition, in experiment [6], the Kd was > 30 µM (inactive).

As for `Cn1cc(-c2ccc(F)c(C(F)(F)F)c2)nc1C1CCN(c2ncnc3[nH]ncc23)CC1` [LY-2584702], the Kd (at Rab-like protein 3; in experiment [1]; in experiment [2]; in experiment [3]; in experiment [4]; in experiment [5]) was > 30 µM (inactive) in each case. In addition, the Kd in experiment [6] is > 30 µM (inactive).

Consider `CN(C)C(=O)c1cc2cnc(Nc3ccc(N4CCNCC4)cn3)nc2n1C1CCCC1` [RIBOCICLIB], for which the Kd (on Rab-like protein 3; in experiment [1]; in experiment [2]; in experiment [3]; in experiment [4]; in experiment [5]) was > 30 µM (inactive) in each case. In addition, the Kd in experiment [6] was > 30 µM (inactive).

For `O=C(Nc1ccc(-c2ccnc(Nc3ccc(N4CCOCC4)cc3)n2)cc1)C1CCCN1` (stereo unspecified) [XL-019], the Kd was > 30 µM (inactive) on Rab-like protein 3; > 30 µM (inactive) in experiment [1]; > 30 µM (inactive) in experiment [2]; 3.97 µM (active) in experiment [3]; > 30 µM (inactive) in experiment [4]; > 30 µM (inactive) in experiment [5]. Also, the Kd in experiment [6] was 3.62 µM (active).

Take `CNC(=O)CN1CCC(Oc2cc3c(Nc4cccc(Cl)c4F)ncnc3cc2OC)CC1` [SAPITINIB]: the Kd (at Rab-like protein 3; in experiment [1]; in experiment [2]; in experiment [3]; in experiment [4]; in experiment [5]) was > 30 µM (inactive) each time. In experiment [6], the Kd was > 30 µM (inactive).

As for `Cc1cc([C@@H](C)Nc2ccccc2C(=O)O)c2nc(N3CCOCC3)cc(=O)n2c1` [AZD-6482], the Kd (on Rab-like protein 3; in experiment [1]; in experiment [2]; in experiment [3]; in experiment [4]; in experiment [5]) was > 30 µM (inactive) each time. Besides, the Kd in experiment [6] is > 30 µM (inactive).

Regarding `CCN1CCN(Cc2ccc(-c3cc4c(N[C@H](C)c5ccccc5)ncnc4[nH]3)cc2)CC1` [AEE-788], the Kd (at Rab-like protein 3; in experiment [1]; in experiment [2]; in experiment [3]; in experiment [4]; in experiment [5]) was > 30 µM (inactive) each time. In experiment [6], the Kd is > 30 µM (inactive).

As for `CN1N=C(N)c2cn([C@@H]3O[C@H](COP(=O)(O)O)[C@@H](O)[C@H]3O)c3ncnc1c23` [TRICIRIBINE PHOSPHATE], the Kd (on Rab-like protein 3; in experiment [1]; in experiment [2]; in experiment [3]; in experiment [4]; in experiment [5]) was > 30 µM (inactive) each time. For the same molecule, in experiment [6], the Kd is > 30 µM (inactive).

On to `CC(=O)Nc1cccc(-n2c(=O)n(C3CC3)c(=O)c3c(Nc4ccc(I)cc4F)n(C)c(=O)c(C)c32)c1` [TRAMETINIB], for which the Kd (on Rab-like protein 3; in experiment [1]; in experiment [2]; in experiment [3]; in experiment [4]; in experiment [5]) was > 30 µM (inactive) throughout. The Kd in experiment [6] is > 30 µM (inactive).

On to `COCCNCc1ccc(-c2cc3nccc(Oc4ccc(NC(=S)NC(=O)Cc5ccc(F)cc5)cc4F)c3s2)nc1` [GLESATINIB], for which the Kd (on Rab-like protein 3; in experiment [1]; in experiment [2]; in experiment [3]; in experiment [4]; in experiment [5]) was > 30 µM (inactive) throughout. In addition, in experiment [6], the Kd is > 30 µM (inactive).

With `CNS(=O)(=O)Nc1nccc(Cc2c(C)c3ccc(Oc4ncccn4)cc3oc2=O)c1F` [AVUTOMETINIB], the Kd (on Rab-like protein 3; in experiment [1]; in experiment [2]; in experiment [3]; in experiment [4]; in experiment [5]) was > 30 µM (inactive) in each case. For the same molecule, the Kd in experiment [6] was > 30 µM (inactive).
